Two substances from patent US20260209277A1, “COMPOUNDS FOR RNA STABILISATION AND DELIVERY” (STICHTING VU, priority 2022, published 2026) can be followed below.

No end group written: not given here. Where only a bound is given, the exact number is not on record here.

The test system of assay [1] is miR-21. In words: Stabilization Assay of miR-21 in fetal bovine serum. The format is in vitro ADME. Conditions: miR-21 9 μM, peptide 18 μM; for stabilizing effect on miR-21 in increasing FBS: 10 min at 37° C., FBS gradient. How it is done: The rapid degradation of RNA by nucleases in serum is one of the central challenges associated with the therapeutic use of RNA. Applicants were therefore interested whether peptide binding promotes RNA stability in serum. For this purpose, miR-21 was incubated with different concentrations of fetal bovine serum (FBS) at 37° C., followed by phenol/chloroform extraction and PAGE analysis (FIG. 14). […] Both is in line with their reduced affinity for miR-21 (FIGS. 12a and 12b). To investigate the time-dependence of RNA stability, a prolonged incubation of RNA in serum (27.5% FBS) was performed, and the remaining RNA visualized by native PAGE (FIG. 14d). Remarkably, even after 6 hours, miR-21 was still detectable in the presence of peptide 2^∘∘2, while in the absence of the peptide, RNA was fully degraded within 15 minutes in line with afore made observations. These findings highlight the potential of peptide 2^∘∘2 to strongly enhance the stability of dsRNA in serum.
RNA stabilization was investigated by incubation of peptide/RNA complexes with fetal bovine serum (FBS) (Thermo Fischer Scientific). Peptide/RNA complexes were formed as described above after which defined amounts of FBS were added (concentration(RNA)=9 μM, concentration(peptide)=18 μM, total volume 10 μL). For gradient stability assay FBS containing RNA solutions were incubated at 37° C. for 10 min and for time course analysis at room temperature with 27.5% FBS. After incubation, 10 μL of NaOAc (3 M), 1 μL Glycogen (Thermo Fischer Scientific), 1 μL Ribolock (Thermo Fischer Scientific) and ddH2O was added on ice to a total volume of 200 μL.
RNA was extracted twice with freshly prepared solution of phenol/chloroform (5:1, 2 mL). After ethanol precipitation (1 mL) of the aqueous phase RNA pallets were redissolved in 8 μL ddH2O and added 2 μL 6×BB and then loaded into a native PAGE gel and run with previously described conditions.

The test system of assay [2] is miR-21. In words: Electrophoretic mobility shift assay (EMSA) with miR-21. The format is binding. Conditions: c(RNA)=3 μM; for dsRNA binding in EMSA (band shift): c(peptide)=6 μM, 15% native PAGE. The source says: With the desired peptides in hand, we first assessed their dsRNA-binding potential using an electrophoretic mobility shift assay (EMSA). Making use of non-denaturing conditions, EMSA allows to resolve biomolecular complexes by size and charge character.
WT33 was employed as comparative positive control for peptide binding while the double-stranded microRNA, miR-21, was chosen as a sample dsRNA target for this assay. Comprised of an 18 base pair (bp) duplex, miR-21 can accommodate the binding of two wt33 monomers, similar to siRNA duplexes. Under established EMSA conditions, miR-21 resolves as two bands, a lower band corresponding to both unbound single strands and a higher, more distinct band (ca. 20 bp) corresponding to the miR-21 duplex (FIG. 2a). […] With reference to wt33, the most prominent elevated band (ca. 30 bp) likely corresponds to a 1:1 peptide/dsRNA complex while the upper band may represent a higher order structure. The reduction in ds and ssRNA band intensity is likely a result of these binding events.
Additionally, EMSA experiments were performed where dsRNA was incubated with either peptide 1^∘∘1 or 2^∘∘2 in the presence or absence TCEP. […] Having verified the tuneable, dsRNA-binding abilities of our peptide dimers, their use a cellular siRNA delivery tools was confirmed.
Electrophoretic mobility shift assays (EMSA's) were performed using a Bio-Rad MiniProtean gel system paired with a direct current (DC) power source (PowerPac™ HC, BioRad). Typically, 6 μL solutions containing RNA (concentration=3 μM) and peptide (concentration=6 μM) were incubated for 1 h at RT in a binding buffer (1×TAE and 10% glycerol). For gels monitoring disulfide reduction, peptide/RNA solutions were incubated in increasing concentrations (concentration=6, 60 and 600 μM) of TCEP. After incubation, bound nucleic acid complexes were resolved using 15% and 10% non-denaturing polyacrylamide gels (acrylamide:bis-acrylamide (19:1) in 1×TAE) at 150 V or 120 V in running buffer (1×TAE) at 4° C. for 1.5 hours. […]
(Mobility shift assays separate free from complexed probe on a gel.)

Assay [3] has as its system miR-21. The assay can be described thus: Thermal denaturation assay (CD, Tm determination) of miR-21/peptide complexes. The format is binding. To be noted: for melting temperature (Tm) of miR-21 co-incubated with peptide: equimolar c=2 μM, ellipticity at λ=267 nm, miR-21 alone 51° C. The source says:
A thermal denaturation assay was next used to further characterize the dsRNA binding abilities of our peptides. Typically employed in the study of nucleic acid complexes, thermal denaturation assays make use of the spectral changes resulting from complex unfolding as temperature is increased. Using circular dichroism (CD) spectroscopy as a readout, we measured the changes in ellipticity at λ=267 nm, the wavelength maxima associated with A-form dsRNA. In line with previous measurements, the mid-point of denaturation or melting temperature (Tm) associated with miR-21 is 51° C. (FIG. 2b and FIG. 2c). To assess the stability of peptide-dsRNA complexes, peptides were co-incubated with miR-21 at an equimolar concentration (c=2 μM) and measured analogously. […] Contrastingly, incubation with dimeric peptide 1^∘∘1 leads to a greater increase stabilization (Tm=56° C., FIG. 2b) which was also seen for peptide 2 (Tm=58° C., FIG. 2c). […] CD spectroscopy allows not only the measurement of thermal denaturation profiles but can also be used to compare the structural characteristics of biomolecular complexes. […]
Circular dichroism (CD) spectra were recorded with a Jasco J-1500 spectropolarimeter (Jasco) equipped with a programmable Peltier thermostat in a stoppered quartz cuvette (10 mm; Hellma). […] For each sample, 10 CD spectra were measured between 200 nm and 350 nm with continuous scan mode (1 mdeg sensitivity, 1.0 nm resolution, 1.0 nm bandwidth, 2 s integration time, 100 nm/min scan rate). […]
where θ=observed ellipticity/mdeg, c=DNA or RNA strand concentration/mol/L and l=path length/cm. Melting temperature (Tm) determination was conducted with the same instrumentation and sample preparation, where ellipticity (θ=267 nm) was measured by ramping the temperature from 15-90° C. […] Raw data were normalized as described above, and Tm-values were determined using the CDpal program before being plotted in Prism 5.0 (GraphPad).

For assay [4], the system named is miR-21. In words: Isothermal titration calorimetry (ITC). To be noted: for N-value (peptides per miR-21 duplex) / −TΔS (entropic penalty) / Kd: 30° C.; for Kd: 1×PBS. The format is binding. How it is done:
To confirm RNA-binding, isothermal titration calorimetry (ITC) was used. […] For wt33 this is in line with applicants' previously reported observations.
Isothermal titration calorimetry (ITC) was conducted using a VP-ITC (MicroCal). Before measurement, annealed miR-21 and peptide samples were dissolved in 1×PBS and degassed using a ThermoVac and heated to 30° C. miR-21 (c=6-15 μM) was then transferred into the sample cell (1.8 mL) and peptides (c=86-305 μM) were transferred into the syringe (300 μL). 37 Injections per measurement were performed at 30° C. (8 μl injection volume, 3.2 s injection time, 180 s spacing, high feedback mode) with an initial delay of 60 s and a stirring speed of 310 rpm. Data were analyzed using the MicroCal LLC ITC software (Origin; OriginLab Corporation), the heat associated with each injection was calculated by integrating the area under the curve for each injection and then normalized to concentration. A ‘single set of identical binding sites’ model was used to fit the binding curves from which thermodynamic binding parameters (ΔG, ΔH, ΔS, N and Kd) were calculated.
For orientation: In ITC the heat of successive injections is recorded.

Another assay relates to HEK293 cells. The assay can be described thus: Confocal microscopy of Cy5-siRNA uptake in HEK cells. The format is cell-based. To be noted: HEK293, Cy5-siRNA 1 μM. On the procedure:
For that purpose, a 21 nt long siRNA comprised of a 19 bp stem and equipped with the far-red fluorescent label, cyanine 5 (Cy5) to monitor RNA internalization (Cy5-siRNA, FIG. 7a) was employed. Initially, HEK293 cells were incubated with Cy5-siRNA (c=1 μM, 37° C., 1 h) before being imaged by confocal fluorescence microscopy. […] To assess the tunability of this effect, Cy5-siRNA/1^∘∘1 or Cy5-siRNA/2^∘∘2 complexes were also pre-treated with the reducing agent dithiothreitol (DTT) in order to promote complex disassembly.
HEK cells were seeded at a density of 40000 cells per well on an 8 well micro-slide (Ibidi), one day before the experiment. They were cultured in DMEM (Thermofisher Scientific), supplemented with 10% Fetal Calf Serum (FCS, PAN Biotech) and glutamax (Life technologies). Before starting the experiment, the peptides and Cy5-labelled siRNA were incubated at a peptide/siRNA ratio of 2:1 (6 μM-3 μM) for 1 h. In case for dithiothreitol (DTT) supplemented experiments, DTT was added to a concentration of 20 mM. The samples were diluted to a final siRNA concentration of 1 μM in serum free DMEM. Cells were washed 1× to remove FCS, and incubated in the siRNA:peptide solution for 1 hour at 37° C. After incubation, cells were washed with the phenol-red free DMEM with HEPES, and imaged. […]

The test system of the next assay is RNA hairpins (HP 1-5). In words: EMSA with RNA hairpins (HP 1-5). The format is binding. Conditions: HP 1-5 c=1 μM, peptide c=4 μM. How it is done:
The binding of 2^∘∘2 to a set of five ds RNA hairpins, composed of different, complementary 19 base pair stems bridged via a fixed 6 nucleotide loop (FIG. 8a).
Electrophoretic mobility shift assays (EMSA's) were performed using a Bio-Rad MiniProtean gel system paired with a direct current (DC) power source (PowerPac™ HC, BioRad). […] For gels monitoring disulfide reduction, peptide/RNA solutions were incubated in increasing concentrations (concentration=6, 60 and 600 μM) of TCEP. After incubation, bound nucleic acid complexes were resolved using 15% and 10% non-denaturing polyacrylamide gels (acrylamide:bis-acrylamide (19:1) in 1×TAE) at 150 V or 120 V in running buffer (1×TAE) at 4° C. for 1.5 hours. For nucleic acid visualization, gels were stained using 2 μL of SYBR™ gold nucleic acid gel dye (Invitrogen) in 20 mL of 1×TAE buffer for 15 minutes at RT before being imaged using a Bio-Rad ChemiDoc.

In general, Kd refers to the constant that tells how readily two partners part at equilibrium. Read a low Kd as a tighter complex. “Ac-KKQAQRKRHKLNRKERGHKSPSEQRRSELWHAR (SEQ ID NO 19); 33-amino acid TAV2b RNA-binding peptide without dimerization motif, comparative positive control [wt33, reference compound]”: the “stabilizing effect on miR-21 in increasing FBS” value with miR-21 [1] is “considerably smaller”. Besides, the “dsRNA binding in EMSA (band shift)” value in the assay on miR-21 [2] was “smeared elevated band (ca. 50 bp), corresponding to a 2:1, peptide/dsRNA complex”. The “melting temperature (Tm) of miR-21 co-incubated with peptide” value in the assay on miR-21 [3] was determined as 58 °C. Besides, in the assay on miR-21 [4], the “N-value (peptides per miR-21 duplex)” value is recorded as 1.91; the “−TΔS (entropic penalty)” value came to 9.3 kcal/mol; the affinity, expressed as Kd, was 328 nM.
Consider “N-terminal disulfide (S-S) homodimer of stapled XβNQKKQAQRKRHKS5NRKS5R (SEQ ID NO 23) [peptide 2^∘∘2]”, for which the “time miR-21 still detectable in serum in presence of peptide” value in the assay with miR-21 [1] (27.5% FBS, room temperature, without peptide fully degraded within 15 minutes) is not below 6 h. Besides, the “stabilizing effect on miR-21 in increasing FBS” value with miR-21 [1] was “residual RNA levels at 20% FBS to be comparable to those at 1% FBS in the absence of peptide”. Further, the “EMSA of dsRNA/peptide complex with increasing TCEP” value in the assay on miR-21 [2] (c(ligand)=6 μM, c(TCEP)=6, 60 and 600 μM) is given as “partial disassembly or unlocking of the dsRNA-peptide complex”. Moreover, the “dsRNA binding in EMSA (band shift)” value in the assay on miR-21 [2] is given as “comparable band is also observed”. Also, the “cellular uptake of Cy5-siRNA co-incubated with peptide (fluorescence)” value in the assay with HEK293 cells (37° C., 1 h, versus Cy5-siRNA alone) is recorded as “increase in fluorescence intensity”. Moreover, the “cellular uptake of Cy5-siRNA/peptide complex pre-treated with DTT” value in the assay with HEK293 cells (DTT pre-treatment (20 mM)) is recorded as “decrease cellular fluorescence intensities”. In addition, in the assay with RNA hairpins (HP 1-5), the “binding to RNA hairpins in EMSA” value was “showed binding to each hairpin”. Moreover, the “melting temperature (Tm) of miR-21 co-incubated with peptide” value in the assay with miR-21 [3] came to 60 °C. Further, the “ΔTm, lowering of melting temperature of dsRNA complex by TCEP” value in the assay with miR-21 [3] (excess reducing agent, 1 mM TCEP vs no TCEP) worked out at 4 °C. In the assay on miR-21 [4], the “N-value (peptides per miR-21 duplex)” value is recorded as 1.89, the “−TΔS (entropic penalty)” value is 5.7 kcal/mol and the equilibrium dissociation constant (Kd) turned out to be 31.7 nM. Moreover, the “fold higher affinity than wt33” value in the assay with miR-21 [4] (Kd ratio versus wt33) was 10 fold.
